The results in this text go back to ChEMBL document CHEMBL1201862, “PubChem BioAssay data set” (2004).

Some test systems named below: A549; ACHN; CAKI-1; DU-145; HOP-62; MCF7; NCI/ADR-RES; OVCAR-8; PC-3; RPMI-8226; SF-268; SF-295; SK-MEL-5; SN12C; SNB-19; SW-620; TK-10; UACC-62; HL-60; MDA-N.
What all share (assay): inhibition of tumour cell growth, NCI panel, 48 h

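Cells were grown in 96-well plates and exposed to each compound for 48 hours at five concentrations; endpoints were interpolated linearly between bracketing concentrations, or set to the highest concentration if not reached. GI50 = concentration required for 50% inhibition of growth.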 Activity calls are given as the source filed them. Rule as the data show it: active = GI50 up to about 1.1 µM and inactive = higher.

Regarding `O=C(Nc1ccc2oc(=O)c(C(=O)O)cc2c1)Oc1ccccc1`, the GI50 in the test with A549, in the test on ACHN, in the test with CAKI-1, with DU-145, in the test with HOP-62 and in the test on MCF7 was > 100 µM (inactive) throughout. Moreover, the GI50 in the test on NCI/ADR-RES, in the test with OVCAR-8, in the test with PC-3, in the test with RPMI-8226, with SF-268 and in the test with SF-295 was > 100 µM (inactive) in each case. In addition, the GI50 with SK-MEL-5, in the test on SN12C, in the test on SNB-19, with SW-620, in the test with TK-10 and in the test on UACC-62 was > 100 µM (inactive) throughout.
On to `O=C1CCCC2=C1CC1=C(CCCC1=O)N2c1ccc([N+](=O)[O-])cc1`, for which the GI50 in the test with A549, in the test on ACHN, with CAKI-1, in the test on HL-60, in the test on MCF7 and with NCI/ADR-RES was > 100 µM (inactive) throughout. The GI50 in the test on OVCAR-8, in the test with PC-3, in the test with RPMI-8226, in the test on SF-268, with SK-MEL-5 and in the test on SN12C was > 100 µM (inactive) each time. Also, the GI50 with SNB-19, in the test on SW-620, with TK-10 and in the test with UACC-62 was > 100 µM (inactive) in each case.
With `CC(C)c1cccc(=O)c(O)c1`, the GI50 in the test with A549 is 2.83 µM (inactive); with ACHN, 1.87 µM (inactive); in the test with CAKI-1, 1.64 µM (inactive); in the test with HL-60, 2.02 µM (inactive); in the test on HOP-62, 5.3 µM (inactive); in the test on MDA-N it was 2.18 µM (inactive). In addition, the GI50 was 1.72 µM (inactive) in the test with OVCAR-8; 2.14 µM (inactive) in the test on RPMI-8226; 1.38 µM (inactive) in the test with SF-268; 3.39 µM (inactive) with SF-295; 2.1 µM (inactive) in the test on SK-MEL-5; 5.51 µM (inactive) in the test on SN12C. In addition, the GI50 with SNB-19 is 7.24 µM (inactive); with SW-620 it was 1.79 µM (inactive); in the test on TK-10 it was 1.25 µM (inactive); in the test with UACC-62 it was 2.67 µM (inactive).
In the case of `CCOC(=O)C1NCCc2c1[nH]c1ccccc21` (centres undefined), the GI50 in the test on A549, with CAKI-1, in the test on DU-145, with HL-60, in the test on HOP-62 and in the test on MCF7 was > 10 µM (inactive) in each case. Also, the GI50 in the test on MDA-N, with OVCAR-8, with PC-3, in the test on RPMI-8226, in the test on SF-268 and with SF-295 was > 10 µM (inactive) each time. The GI50 in the test on SK-MEL-5, in the test on SN12C, in the test with SW-620, with TK-10 and in the test on UACC-62 was > 10 µM (inactive) in each case.
Take `CCOc1ccc(Nc2nc3c(s2)C(=O)c2ccccc2C3=O)cc1`: the GI50 with A549 was 19.5 µM (inactive); in the test on ACHN, 14.5 µM (inactive); with CAKI-1, 8.41 µM (inactive); with DU-145, 14.2 µM (inactive); in the test with HL-60, 3.19 µM (inactive); in the test on HOP-62, 17.7 µM (inactive). For the same molecule, the GI50 in the test on MCF7 is 4.81 µM (inactive); in the test with MDA-N it was 1.96 µM (inactive); with PC-3, 5.56 µM (inactive); in the test on RPMI-8226 it was 3.85 µM (inactive); in the test with SF-268 it was 3.63 µM (inactive); in the test with SF-295, 10.7 µM (inactive). The GI50 was 2.27 µM (inactive) in the test on SK-MEL-5; 3.76 µM (inactive) with SN12C; 15.7 µM (inactive) with SNB-19; 3.21 µM (inactive) in the test on SW-620; 20.8 µM (inactive) with TK-10; 2.24 µM (inactive) in the test with UACC-62.
Consider `CC1CCC2CC1NC(=O)CCOCCC(=O)NC2(C)C` (centres undefined), for which the GI50 in the test with A549, in the test with DU-145, with HL-60, with HOP-62, with MCF7 and in the test with MDA-N was > 100 µM (inactive) throughout. Further, the GI50 in the test on OVCAR-8, in the test with PC-3, with SF-268, in the test with SF-295, in the test with SK-MEL-5 and in the test on SN12C was > 100 µM (inactive) throughout. Further, the GI50 in the test on SNB-19, with SW-620, in the test on TK-10 and in the test with UACC-62 was > 100 µM (inactive) each time.
On to `COc1ccc(N2C(=O)C3c4[nH]c5ccc(C)cc5c4C4CCC(C)CC4C3C2=O)cc1` (centres undefined), for which the GI50 in the test with A549 is > 100 µM (inactive); in the test with ACHN it was 99.3 µM (inactive); in the test with CAKI-1, > 100 µM (inactive); with DU-145, > 100 µM (inactive); with HL-60, > 10 µM (inactive); in the test on MDA-N, > 100 µM (inactive). The GI50 with NCI/ADR-RES is 44.7 µM (inactive); with OVCAR-8, > 100 µM (inactive); in the test on PC-3, > 100 µM (inactive); in the test on RPMI-8226 it was > 100 µM (inactive); in the test on SF-268 it was 37.8 µM (inactive); in the test with SF-295, 27.1 µM (inactive). For the same molecule, the GI50 with SK-MEL-5 is > 100 µM (inactive); with SN12C it was > 100 µM (inactive); in the test on SNB-19 it was 61.2 µM (inactive); in the test on SW-620 it was > 100 µM (inactive); with TK-10, 34.4 µM (inactive); in the test on UACC-62 it was 52.7 µM (inactive).
For `COC(=O)/C=C\S/C(=C(/c1ccccc1)n1ccc(C(=O)OC)n1)c1ccccc1`, the GI50 in the test on A549 is 36.6 µM (inactive); with ACHN, 7.48 µM (inactive); in the test on CAKI-1, > 100 µM (inactive); with HL-60, > 100 µM (inactive); in the test on HOP-62 it was 15.8 µM (inactive); with MCF7, 8.77 µM (inactive). Further, the GI50 is 47.6 µM (inactive) in the test with NCI/ADR-RES; 35.9 µM (inactive) in the test on OVCAR-8; 16.7 µM (inactive) in the test with PC-3; 38.9 µM (inactive) in the test with RPMI-8226; 20.5 µM (inactive) in the test with SF-268; 20.3 µM (inactive) in the test with SF-295. For the same molecule, the GI50 is 29.5 µM (inactive) with SK-MEL-5; 37.5 µM (inactive) with SN12C; 12.7 µM (inactive) with SNB-19; 82.8 µM (inactive) in the test with SW-620; 25.6 µM (inactive) in the test with TK-10; 3.23 µM (inactive) in the test on UACC-62.
In the case of `COc1cccc(C[C@H]2COC(=O)[C@]2(O)Cc2cccc(OC)c2)c1`, the GI50 in the test on A549 was > 100 µM (inactive); in the test with ACHN, > 100 µM (inactive); in the test with CAKI-1, 18.1 µM (inactive); with DU-145 it was > 100 µM (inactive); in the test with HL-60, 72.6 µM (inactive); in the test on HOP-62, > 100 µM (inactive). The GI50 in the test with MDA-N was > 100 µM (inactive); in the test on NCI/ADR-RES, 66.5 µM (inactive); with OVCAR-8 it was > 100 µM (inactive); in the test with PC-3, > 100 µM (inactive); in the test with RPMI-8226, 93.3 µM (inactive); with SF-268, < 0.01 µM (active). Further, the GI50 was 83 µM (inactive) in the test with SF-295; 50.9 µM (inactive) in the test with SK-MEL-5; > 100 µM (inactive) in the test with SN12C; > 100 µM (inactive) in the test with SNB-19; > 100 µM (inactive) with SW-620; 70.6 µM (inactive) with TK-10. Also, in the test with UACC-62, the GI50 is 60.1 µM (inactive).
In the case of `CC(C)C[C@H]1[C@@H](OCc2ccccc2)COS(=O)N1[C@H](C)c1ccccc1` (some centres undefined), the GI50 is 17.5 µM (inactive) with A549; 19.5 µM (inactive) in the test with ACHN; 20.2 µM (inactive) in the test on CAKI-1; 37.8 µM (inactive) in the test on DU-145; 8.15 µM (inactive) with HL-60; 19.1 µM (inactive) with HOP-62. Besides, the GI50 is 24.9 µM (inactive) in the test on MDA-N; 18.7 µM (inactive) in the test on NCI/ADR-RES; 26.7 µM (inactive) in the test with OVCAR-8; 5.79 µM (inactive) in the test with PC-3; 5.51 µM (inactive) in the test with RPMI-8226; 24.2 µM (inactive) in the test on SF-268. Further, the GI50 is 4 µM (inactive) in the test with SF-295; 10.2 µM (inactive) in the test with SK-MEL-5; 17.5 µM (inactive) with SN12C; 30.3 µM (inactive) with SNB-19; 29.1 µM (inactive) in the test on SW-620; 20.6 µM (inactive) with TK-10. Further, the GI50 with UACC-62 is 35.1 µM (inactive).
`C[C@H]1[C@@H](c2ccccc2)O[B-](c2ccccc2)(c2ccccc2)[N+]1(C)C`: the GI50 was 74.1 µM (inactive) with A549; 34.3 µM (inactive) in the test with ACHN; 34.3 µM (inactive) in the test on CAKI-1; 57 µM (inactive) with DU-145; > 100 µM (inactive) with HL-60; > 100 µM (inactive) in the test on HOP-62. Moreover, the GI50 with MDA-N is 48.8 µM (inactive); in the test on NCI/ADR-RES, 76.7 µM (inactive); in the test on OVCAR-8 it was 79.3 µM (inactive); in the test with PC-3, < 0.01 µM (active); with RPMI-8226, 31.3 µM (inactive); in the test with SF-268, > 100 µM (inactive). The GI50 with SF-295 was 32.6 µM (inactive); in the test with SK-MEL-5, 28.1 µM (inactive); in the test with SN12C it was 99.3 µM (inactive); in the test with SNB-19 it was > 100 µM (inactive); in the test with SW-620, 56.5 µM (inactive); in the test with TK-10 it was 36.3 µM (inactive). The GI50 in the test on UACC-62 is 52 µM (inactive).
